# Measurements as given in patent publication US10179790B2 (THOMAS HELLEDAYS STIFTELSE FOR MEDICINSK FORSKNING, priority 2014, dated 2019).
# pIC50: −log10 of the molar value.
# Tests used:
# cancer cell = assay: Cell viability assay (resazurin); assay type: cell-based; settings: 72 h; 3 days with compound, resazurin fluorescence; cell line not named
# How it was run: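 Cells in DMEM GlutaMAX or line-appropriate medium are exposed to compound for 3 days at 37 °C, 5% CO2. Viability is read as resazurin fluorescence (Ex544/Em590) after 2 h incubation. In the 384-well format, cells are seeded onto 11 pre-dispensed concentrations (final DMSO <1%) and read after 3 h resazurin.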
# MTH1 = MTH1 (Homo sapiens, UniProt P36639); assay: MTH1 enzymatic assay and IC50 value determination (malachite green, 96- and 384-well format); assay type: biochemical; settings: hydrolysis of dGTP (100 μM), MTH1 6 nM, pyrophosphatase-coupled malachite green, 15 minutes at 22° C.
# How it was run: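 MTH1 (6 nM) hydrolysed dGTP (100 μM) for 15 min at 22 °C in Tris-acetate buffer with Mg2+, DTT, Tween 20 and excess pyrophosphatase, 1% DMSO. Pi detected with malachite green at 630 nm. IC50 from nonlinear 4-parameter fit of 11–12-point dilution series.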
SMILES,pIC50 (cancer cell),pIC50 (MTH1)
"Cc1c(Cl)cccc1-c1cc(NCCCNc2ccc(S(N)(=O)=O)cc2)nc(N)n1 [Example 163, 4-[3-[[2-amino-6-(3-chloro-2-methyl-phenyl)pyrimidin-4-yl]amino]propylamino]benzenesulfonamide]",> 6.30,> 6.70
"Cc1c(Cl)cccc1-c1cc(NCC(C)(C)CNc2ccc(S(N)(=O)=O)cc2)nc(N)n1 [Example 164, 4-[[3-[[2-amino-6-(3-chloro-2-methyl-phenyl)pyrimidin-4-yl]amino]-2,2-dimethyl-propyl]amino]benzenesulfonamide]",> 6.30,> 6.70
"Cc1nc2ccc(NCC(C)(C)CNc3cc(-c4cccc(Cl)c4C)nc(N)n3)cc2s1 [Example 165, 6-(3-chloro-2-methyl-phenyl)-N4-[2,2-dimethyl-3-[(2-methyl-1,3-benzothiazol-6-yl)amino]propyl]pyrimidine-2,4-diamine]",> 6.30,> 6.70
"Cc1c(Cl)cccc1-c1cc(NCCNc2cccc(S(=O)(=O)C(C)C)c2)nc(N)n1 [Example 166, 6-(3-Chloro-2-methyl-phenyl)-N4-[2-(3-isopropylsulfonylanilino)ethyl]pyrimidine-2,4-diamine]",> 6.30,> 6.70
"Cc1c(Cl)cccc1-c1cc(NCCCNc2ccc(C(N)=O)cn2)nc(N)n1 [Example 167, 6-[3-[[2-amino-6-(3-chloro-2-methyl-phenyl)pyrimidin-4-yl]amino]propylamino]pyridine-3-carboxamide]",> 6.30,> 6.70
"Cc1c(Cl)cccc1-c1cc(NCCCNc2nccc(C(N)=O)n2)nc(N)n1 [Example 168, 2-[3-[[2-amino-6-(3-chloro-2-methyl-phenyl)pyrimidin-4-yl]amino]propylamino]pyrimidine-4-carboxamide]",> 6.30,> 6.70
"Cc1c(Cl)cccc1-c1cc(NCCc2ccc(S(=O)(=O)C(C)C)cc2)nc(N)n1 [Example 169, 6-(3-chloro-2-methyl-phenyl)-N4-[2-(4-isopropylsulfonylphenyl)ethyl]pyrimidine-2,4-diamine]",> 6.30,> 6.70
Cc1c(Cl)cccc1-c1cc(NCCc2cccc(S(=O)(=O)C(C)C)c2)nc(N)n1 [Example 170],> 6.30,> 6.70
"Cc1c(Cl)cccc1-c1cc(NCCc2ccc(C(N)=O)c(F)c2)nc(N)n1 [Example 171, 4-[2-[[2-amino-6-(3-chloro-2-methyl-phenyl)pyrimidin-4-yl]amino]ethyl]-2-fluoro-benzamide]",> 6.30,> 6.70
"Cc1c(Cl)cccc1-c1cc(NCCc2ccc(S(C)(=O)=O)c(F)c2)nc(N)n1 [Example 172, 6-(3-chloro-2-methyl-phenyl)-N4-[2-(3-fluoro-4-methylsulfonyl-phenyl)ethyl]pyrimidine-2,4-diamine]",> 6.30,> 6.70
"Cc1c(Cl)cccc1-c1cc(NCCc2ccc(O)c(C(N)=O)c2)nc(N)n1 [Example 173, 5-[2-[[2-amino-6-(3-chloro-2-methyl-phenyl)pyrimidin-4-yl]amino]ethyl]-2-hydroxy-benzamide]",> 6.30,> 6.70
"Cc1c(Cl)cccc1-c1cc(NCCSc2nccc(C(N)=O)n2)nc(N)n1 [Example 174, 2-[2-[[2-amino-6-(3-chloro-2-methyl-phenyl)pyrimidin-4-yl]amino]ethylsulfanyl]pyrimidine-4-carboxamide]",> 6.30,> 6.70
"Cc1c(Cl)cccc1-c1cc(NCCSCc2ccc(S(C)(=O)=O)cc2)nc(N)n1 [Example 176, 6-(3-chloro-2-methyl-phenyl)-N4-[2-[(4-methylsulfonylphenyl)methylsulfanyl]ethyl]pyrimidine-2,4-diamine]",> 6.30,> 6.70
"Cc1c(Cl)cccc1-c1cc(NCCc2ccc(C(=O)OC(C)C)cc2)nc(N)n1 [Example 178, Isopropyl 4-[2-[[2-amino-6-(3-chloro-2-methyl-phenyl)pyrimidin-4-yl]amino]ethyl]benzoate]",> 6.30,> 6.70
